Experimental findings from article PMC4718634, “Murine GPRC6A Mediates Cellular Responses to L-Amino Acids, but Not Osteocalcin Variants” (PLoS ONE, 2016) are described below.

The experiment relates to MIN6 or βTC6 cells. Description: Insulin release, MIN6 or βTC6 cells (summary table). It counts as cell-based, murine. The conditions noted are these: S1 Table. The method, then:
MIN6 or βTC-6 cells were seeded in 24-well plates at 170,000 cells per well in DMEM (containing 4.5g/L glucose, 10 mM HEPES, 100 U/ml penicillin, 100 μg/ml streptomycin and 15% de-complemented FBS) and incubated at 37°C / 5% CO2 for 72 h. Cells were then washed with 500 μl PBS and incubated in 500 μl deprivation media (DMEM with zero glucose, 10 mM HEPES, 1 mM Na-pyruvate, 100 U/ml penicillin, 100 μg/ml streptomycin, 15% de-complemented FBS) for 2 h at 37°C. Media was aspirated and after washing with 500 μl PBS, cells were treated with 250 μl of Krebs buffer (250 mM NaCl, 5.9 mM KCl, 1.2 mM MgCl2, 1.3 mM CaCl2, 25 mM HEPES, 0.1% BSA (w/v), and 2 mM or 16.7 mM glucose; pH 7.4) in the presence or absence of test compound. After incubation for 2 h at 37°C, the assay was terminated by placing the plates on ice and supernatants were transferred to a 96-well plate in preparation for insulin ELISA (Alpco) following manufacturer’s instructions. The cell monolayer was washed twice with 500 μl of PBS and then lysed using 250 μl of 1 N NaOH prior to protein measurement by the method of Bradford (1976).

“OCN: osteoblast-derived peptide, osteocalcin; variant not specified at the place (YLYQWLGAPVPYPDPLEPRREVCELNPDCDELADHIGFQEAYRRFYGPV; UniProt P02818 52-100, looked up)”: the “Insulin release (summary)” value is listed as “Insulin release – response to L-aa. No response to OCN”.
